Measured values: PubChem BioAssay AID1259407 (Chemical Carcinogenesis Research Information System (CCRIS), 2018)
Activity calls are given as the source filed them. The rule behind the calls is not given here.

System: CCRIS mutagenicity, Ames/micronucleus/aberration tests
Experiment: CCRIS mutagenicity studies
[1] = Test System: AMES SALMONELLA TYPHIMURIUM, Strain/Indicator: TA98, Metabolic Activation: NONE, Method: PREINCUBATION
[2] = Test System: AMES SALMONELLA TYPHIMURIUM, Strain/Indicator: TA98, Metabolic Activation: RAT, LIVER, S-9, AROCLOR 1254, Method: PREINCUBATION
[3] = Test System: AMES SALMONELLA TYPHIMURIUM, Strain/Indicator: TA100, Metabolic Activation: NONE, Method: PREINCUBATION
[4] = Test System: AMES SALMONELLA TYPHIMURIUM, Strain/Indicator: TA100, Metabolic Activation: RAT, LIVER, S-9, AROCLOR 1254, Method: PREINCUBATION
[5] = Test System: AMES SALMONELLA TYPHIMURIUM, Strain/Indicator: TA100, Metabolic Activation: NONE, Method: STANDARD PLATE

SMILES: CCC(Cl)C(Cl)C(Cl)CC(Cl)C(Cl)C(C)Cl (stereo unspecified)
- mutagenic call (Test System: AMES SALMONELLA TYPHIMURIUM, Strain/Indicator: TA97, Metabolic Activation: HAMSTER, LIVER, S-9, AROCLOR 1254, Method: PREINCUBATION): inactive; negative
- mutagenic call (Test System: AMES SALMONELLA TYPHIMURIUM, Strain/Indicator: TA97, Metabolic Activation: NONE, Method: PREINCUBATION): inactive; negative
- mutagenic call (Test System: AMES SALMONELLA TYPHIMURIUM, Strain/Indicator: TA97, Metabolic Activation: RAT, LIVER, S-9, AROCLOR 1254, Method: PREINCUBATION): inactive; negative
- mutagenic call (Test System: AMES SALMONELLA TYPHIMURIUM, Strain/Indicator: TA98, Metabolic Activation: HAMSTER, LIVER, S-9, AROCLOR 1254 (10%), Method: PREINCUBATION): inactive; negative
- mutagenic call (Test System: AMES SALMONELLA TYPHIMURIUM, Strain/Indicator: TA98, Metabolic Activation: HAMSTER, LIVER, S-9, AROCLOR 1254, Method: PREINCUBATION): inactive; negative
- mutagenic call [1]: inactive; negative
- mutagenic call (Test System: AMES SALMONELLA TYPHIMURIUM, Strain/Indicator: TA98, Metabolic Activation: RAT, LIVER, S-9, AROCLOR 1254 (10%), Method: PREINCUBATION): inactive; negative
- mutagenic call [2]: inactive; negative
- mutagenic call (Test System: AMES SALMONELLA TYPHIMURIUM, Strain/Indicator: TA100, Metabolic Activation: HAMSTER, LIVER, S-9, AROCLOR 1254 (10%), Method: PREINCUBATION): inactive; negative
- mutagenic call (Test System: AMES SALMONELLA TYPHIMURIUM, Strain/Indicator: TA100, Metabolic Activation: HAMSTER, LIVER, S-9, AROCLOR 1254, Method: PREINCUBATION): inactive; negative
- mutagenic call [3]: inactive; negative
- mutagenic call (Test System: AMES SALMONELLA TYPHIMURIUM, Strain/Indicator: TA100, Metabolic Activation: RAT, LIVER, S-9, AROCLOR 1254 (10%), Method: PREINCUBATION): inactive; negative
- mutagenic call [4]: inactive; negative
- mutagenic call (Test System: AMES SALMONELLA TYPHIMURIUM, Strain/Indicator: TA1535, Metabolic Activation: HAMSTER, LIVER, S-9, AROCLOR 1254 (10%), Method: PREINCUBATION): inactive; negative
- mutagenic call (Test System: AMES SALMONELLA TYPHIMURIUM, Strain/Indicator: TA1535, Metabolic Activation: HAMSTER, LIVER, S-9, AROCLOR 1254, Method: PREINCUBATION): inactive; negative
- mutagenic call (Test System: AMES SALMONELLA TYPHIMURIUM, Strain/Indicator: TA1535, Metabolic Activation: NONE, Method: PREINCUBATION): inactive; negative
- mutagenic call (Test System: AMES SALMONELLA TYPHIMURIUM, Strain/Indicator: TA1535, Metabolic Activation: RAT, LIVER, S-9, AROCLOR 1254 (10%), Method: PREINCUBATION): inactive; negative
- mutagenic call (Test System: AMES SALMONELLA TYPHIMURIUM, Strain/Indicator: TA1535, Metabolic Activation: RAT, LIVER, S-9, AROCLOR 1254, Method: PREINCUBATION): inactive; negative
- mutagenic call (Test System: AMES SALMONELLA TYPHIMURIUM, Strain/Indicator: TA1537, Metabolic Activation: HAMSTER, LIVER, S-9, AROCLOR 1254 (10%), Method: PREINCUBATION): inactive; negative
- mutagenic call (Test System: AMES SALMONELLA TYPHIMURIUM, Strain/Indicator: TA1537, Metabolic Activation: NONE, Method: PREINCUBATION): inactive; negative
- mutagenic call (Test System: AMES SALMONELLA TYPHIMURIUM, Strain/Indicator: TA1537, Metabolic Activation: RAT, LIVER, S-9, AROCLOR 1254 (10%), Method: PREINCUBATION): inactive; negative
- mutagenic call (Test System: MOUSE LYMPHOMA, Strain/Indicator: L5178Y (TK+/TK-), Metabolic Activation: NONE, Method: SUSPENSION/PLATE): active; positive

SMILES: c1cnc2c(c1)CCC1OC21 (stereo unspecified)
- mutagenic call [5]: inactive; negative
- mutagenic call (Test System: AMES SALMONELLA TYPHIMURIUM, Strain/Indicator: TA100, Metabolic Activation: RAT, LIVER, S-9, AROCLOR 1254 (10 OR 20%), Method: STANDARD PLATE): inactive; negative

SMILES: CC(C)Nc1nc(Cl)nc(NC(C)C)n1
- mutagenic call (Test System: AMES SALMONELLA TYPHIMURIUM, Strain/Indicator: TA97, Metabolic Activation: NONE, Method: STANDARD PLATE): inactive; negative
- mutagenic call (Test System: AMES SALMONELLA TYPHIMURIUM, Strain/Indicator: TA97, Metabolic Activation: RAT, LIVER, S-9, AROCLOR 1254, Method: STANDARD PLATE): inactive; negative
- mutagenic call (Test System: AMES SALMONELLA TYPHIMURIUM, Strain/Indicator: TA97A, Metabolic Activation: NONE, Method: STANDARD PLATE): inactive; negative
- mutagenic call (Test System: AMES SALMONELLA TYPHIMURIUM, Strain/Indicator: TA97A, Metabolic Activation: RAT, LIVER, S-9, AROCLOR 1254, Method: STANDARD PLATE): inactive; negative
- mutagenic call (Test System: AMES SALMONELLA TYPHIMURIUM, Strain/Indicator: TA98, Metabolic Activation: NONE, Method: STANDARD PLATE): inactive; negative
- mutagenic call (Test System: AMES SALMONELLA TYPHIMURIUM, Strain/Indicator: TA98, Metabolic Activation: RAT, LIVER, S-9, AROCLOR 1254, Method: STANDARD PLATE): inactive; negative
- mutagenic call [5]: inactive; negative
- mutagenic call (Test System: AMES SALMONELLA TYPHIMURIUM, Strain/Indicator: TA100, Metabolic Activation: RAT, LIVER, S-9, AROCLOR 1254, Method: STANDARD PLATE): inactive; negative
- mutagenic call (Test System: AMES SALMONELLA TYPHIMURIUM, Strain/Indicator: TA102, Metabolic Activation: NONE, Method: STANDARD PLATE): inactive; negative
- mutagenic call (Test System: AMES SALMONELLA TYPHIMURIUM, Strain/Indicator: TA102, Metabolic Activation: RAT, LIVER, S-9, AROCLOR 1254, Method: STANDARD PLATE): inactive; negative
- mutagenic call (Test System: AMES SALMONELLA TYPHIMURIUM, Strain/Indicator: TA1535, Metabolic Activation: NONE, Method: STANDARD PLATE): inactive; negative
- mutagenic call (Test System: AMES SALMONELLA TYPHIMURIUM, Strain/Indicator: TA1535, Metabolic Activation: RAT, LIVER, S-9, AROCLOR 1254, Method: STANDARD PLATE): inactive; negative
- mutagenic call (Test System: AMES SALMONELLA TYPHIMURIUM, Strain/Indicator: TA1537, Metabolic Activation: NONE, Method: STANDARD PLATE): inactive; negative
- mutagenic call (Test System: AMES SALMONELLA TYPHIMURIUM, Strain/Indicator: TA1537, Metabolic Activation: RAT, LIVER, S-9, AROCLOR 1254, Method: STANDARD PLATE): inactive; negative
- mutagenic call (Test System: AMES SALMONELLA TYPHIMURIUM, Strain/Indicator: TA1538, Metabolic Activation: NONE, Method: STANDARD PLATE): inactive; negative
- mutagenic call (Test System: AMES SALMONELLA TYPHIMURIUM, Strain/Indicator: TA1538, Metabolic Activation: RAT, LIVER, S-9, AROCLOR 1254, Method: STANDARD PLATE): inactive; negative

SMILES: O[C@H]1c2cccc3ccc4cccc(c4c23)[C@@H]1O
- mutagenic call [1]: inactive; negative
- mutagenic call [2]: inactive; negative
- mutagenic call [3]: inactive; negative
- mutagenic call [4]: inactive; negative

SMILES: FC(F)(F)C(F)(F)C(F)(F)C(F)(F)I
- mutagenic call (End Point: IN VITRO CHROMOSOMAL ABERRATIONS, Test System: HUMAN PERIPHERAL BLOOD LYMPHOCYTES, Metabolic Activation: NONE): inactive; negative
- mutagenic call (End Point: IN VITRO CHROMOSOMAL ABERRATIONS, Test System: HUMAN PERIPHERAL BLOOD LYMPHOCYTES, Metabolic Activation: RAT, LIVER, S-9, AROCLOR 1254): inactive; negative
- mutagenic call (Test System: AMES SALMONELLA TYPHIMURIUM, Strain/Indicator: TA98, Metabolic Activation: NONE): inactive; negative
- mutagenic call (Test System: AMES SALMONELLA TYPHIMURIUM, Strain/Indicator: TA98, Metabolic Activation: RAT, LIVER, S-9, AROCLOR 1254): inactive; negative
- mutagenic call (Test System: AMES SALMONELLA TYPHIMURIUM, Strain/Indicator: TA100, Metabolic Activation: NONE): inactive; negative
- mutagenic call (Test System: AMES SALMONELLA TYPHIMURIUM, Strain/Indicator: TA100, Metabolic Activation: RAT, LIVER, S-9, AROCLOR 1254): inactive; negative
- mutagenic call (Test System: AMES SALMONELLA TYPHIMURIUM, Strain/Indicator: TA1535, Metabolic Activation: NONE): inactive; negative
- mutagenic call (Test System: AMES SALMONELLA TYPHIMURIUM, Strain/Indicator: TA1535, Metabolic Activation: RAT, LIVER, S-9, AROCLOR 1254): inactive; negative
- mutagenic call (Test System: AMES SALMONELLA TYPHIMURIUM, Strain/Indicator: TA1537, Metabolic Activation: NONE): inactive; negative
- mutagenic call (Test System: AMES SALMONELLA TYPHIMURIUM, Strain/Indicator: TA1537, Metabolic Activation: RAT, LIVER, S-9, AROCLOR 1254): inactive; negative
- mutagenic call (Test System: E. COLI, Strain/Indicator: WP2UVRA, Metabolic Activation: NONE): inactive; negative
- mutagenic call (Test System: E. COLI, Strain/Indicator: WP2UVRA, Metabolic Activation: RAT, LIVER, S-9, AROCLOR 1254): inactive; negative
